Source: patent US20040235922A1, “Compositions and methods for inducing adipose tissue cell death” (priority 2003, published 2004)
Entries after “also recorded” stand apart in the source; their conditions may differ.

Key:
[1] = system: Epi/Par fat pads (white adipose tissue); test: Adipose tissue apoptosis assay, % DNA fragmentation (Example 1); format: in vivo, mice; conditions: 21 days
Experimental: Animals: Five week old male (n=20) and female (n=20) ICR mice (Harlan Research Laboratories, Indianapolis, Ind.) were allowed to acclimate for one week prior to the experiment start date. Animals were housed singly in suspended wire cages and were provided ground rodent chow (ProLab® RMH 2500; Purina Mills, St. Louis, Mo.) and water ad libitum. Ambient room temperature was maintained and the light/dark cycle was 0600/1800 hours, respectively. Animals were cared for in accordance with the Guide for the Care and Use of Laboratory Animals (Institute of Laboratory Animal Resources Commission on Life Sciences National Research Council. Guide for the Care and Use of Laboratory Animals. National Academy of Sciences, 1996). Prior to the start of the study, animals were briefly anesthetized with isofluorane and an IPPT-200 transponder (programmable ID and temperature, BMDS, Seaford, Del.) was implanted subcutaneously between the scapulae.
Materials: Test articles included clenbuterol (Sigma Chemical Company, St. Louis, Mo., item # C5423) and ractopamine hydrochloride—Paylean® 9 (Elanco Animal Health, Indianapolis, Ind.). Clenbuterol is available as a pure product, and ractopamine is readily available as a type A medicated article. Paylean® 9 contains about 20 g ractopamine hydrochloride per kilogram in a ground corncob base. In order to achieve doses of 200 and 800 ppm it was necessary to add about […] of product per kilogram of diet. Control and clenbuterol diets were prepared with about 80 g of alphacel, which is a diluent used to mimic the effect of the corncob in the ractopamine product. The dose of clenbuterol used in this experiment was similar to those used in previous experiments with mice (Agbenyega E T, and Wareham A C. Effect of clenbuterol on skeletal muscle atrophy in mice induced by the glucocorticoid dexamethasone. Comp Biochem Physiol Comp Physiol 1992;102:141-145, Rothwell N. J., and Stock M J. Modification of body composition by clenbuterol in normal and dystrophic (mdx) mice. Biosci Rep 1985;5:755-760, Hyltander A, Svaninger G, and Lundholm K. The effect of clenbuterol on body composition in spontaneously eating tumour-bearing mice. Biosci Rep 1993;13:325-331, Hayes A, and Williams DA. Long-term clenbuterol administration alters the isometric contractile properties of skeletal muscle from normal and dystrophin-deficient mdx mice. Clin Exp Pharmacol Physiol 1994;21:757-765, Dupont-Versteegden EE. Exercise and clenbuterol as strategies to decrease the progression of muscular dystrophy in mdx mice. J Appl Physiol 1996;80:734-741).
DNA Isolation and Apoptosis Assay: Only the Epi and Par fat pads had sufficient tissue for the apoptosis assay. Apoptosis was assayed in two ways: DNA isolated from fat tissue was separated into two fractions: fragmented and genomic DNA. First, the fragmented DNA was run on an agarose gel in order to identify a ladder pattern of internucleosomal DNA degradation that is characteristic of apoptosis. Second, apoptosis was quantified as the ratio of fragmented- to total-DNA, multiplied by 100. Briefly, approximately 50 mg of the Epi or Par white adipose tissue was homogenized in lysis buffer (10 mM Tris-HCL, pH 8.0, 10 mM EDTA, pH 8.0; 0.5% Triton X-100) and centrifuged at 14,000× g for 15 min to separate fragmented DNA from genomic DNA. The supernatant, containing fragmented DNA, was extracted with phenol-chloroform-isoamyl alcohol (25:24:1), and the DNA was precipitated by adding polyacryl carrier (Molecular Research Center, Inc., Cincinnati, Ohio) and ethanol. Genomic (non-fragmented) DNA was extracted from the pellet with DNAzol and the polyacryl carrier. DNA in each fraction was quantified by the PicoGreen method (Molecular Probes, Inc., Eugene, Oreg.) and fluorescence was measured using a SpectroMax Gemini (Molecular Devices).
Statistical Analysis: Analysis of variance (SAS) was used to determine significance of treatment and gender effects. […]

brain and liver = conditions: in vivo; cited from earlier work

CC(C)(C)NCC(O)c1cc(Cl)c(N)c(Cl)c1 (stereo not shown) [Clenbuterol, clenbuterol]
Percent DNA fragmentation (apoptosis) in the Epi/Par fat pad compared to control ([1]; 200 ppm clenbuterol, 800 ppm ractopamine in diet, p<0.05, listed as clenbuterol): increased; also recorded: significant increase in apoptosis | Adipose tissue apoptosis (% DNA fragmentation) in Epi/Par fat pads ([1]; 200 ppm in diet, mice, control 1.7±0.4%): 5.2 ± 1.1% | DNA fragmentation in retroperitoneal or inguinal fat pads ([1]; diet, mice): Neither clenbuterol nor ractopamine treatments increased | Apoptosis in brain and liver (brain and liver): protect against apoptosis
